Results taken from EP0929545B1, “TRICYCLIC INHIBITORS OF FARNESYL PROTEIN TRANSFERASE” (SCHERING CORPORATION, priority 1996, dated 1998).
Where two headings read alike, the source gives them in different places. Each block holds one molecule with its values, some of them ahead of it.

How the values were obtained:
[1] = molecular target: farnesyl protein transferase (Homo sapiens, UniProt P49354+P49356); experiment: FPT IC50, inhibition of farnesyl protein transferase, in vitro enzyme assay; assay type: biochemical; conditions: range stated jointly for the listed compounds
Protocol: (§1) FPT IC50 (inhibition of farnesyl protein transferase, in vitro enzyme assay) and COS Cell IC50 (Cell-Based Assay) were determined following the assay procedures described in WO 95/10516, published April 20, 1995. GGPT IC50 (inhibition of geranylgeranyl protein transferase, in vitro enzyme assay), Cell Mat Assay, and anti-tumor activity (in vivo anti-tumor studies) could be determined by the assay procedures described in WO 95/ 10516. The disclosure of WO 95/ 10516 is incorporated herein by reference thereto.

COS Cell = COS Cell IC50 (Cell-Based Assay); conditions: range stated jointly for the listed compounds
Protocol: as §1

Human tumor cells = experiment: Soft Agar Assay (anchorage-independent growth); assay type: cell-based; conditions: range stated jointly for the listed compounds, upper end printed as >500
Protocol: Anchorage-independent growth is a characteristic of tumorigenic cell lines. Human tumor cells are suspended in growth medium containing 0.3% agarose and an indicated concentration of a farnesyl transferase inhibitor. The solution is overlayed onto growth medium solidified with 0.6% agarose containing the same concentration of farnesyl transferase inhibitor as the top layer. After the top layer is solidified, plates are incubated for 10-16 days at 37°C under 5% CO2 to allow colony outgrowth. After incubation, the colonies are stained by overlaying the agar with a solution of MTT (3-[4,5-dimethylthiazol-2-yl]-2,5-diphenyltetrazolium bromide, Thiazolyl blue) (1 mg/mL in PBS). Colonies can be counted and the IC50's can be determined.

[2] = H-ras, read-out: FPT IC50 (H-ras)
[3] = K-ras, read-out: FPT IC50 (K-ras)

Structure (SMILES): O=C(CC1CCN(c2nnnn2-c2ccccc2)CC1)N1CCC([C@H]2c3ncc(Br)cc3CCc3cc(Cl)cc(Br)c32)CC1 [Compound 2.0]
IC50 [1, 2]: 0.0046 to 0.14 µM

Structure (SMILES): O=C(CC1CCN(c2nccs2)CC1)N1CCC([C@H]2c3ncc(Br)cc3CCc3cc(Cl)cc(Br)c32)CC1 [Compound 3.0]
IC50 [1, 2]: 0.0046 to 0.14 µM

Structure (SMILES): O=C(CC1CCN(c2ncccn2)CC1)N1CCC([C@H]2c3ncc(Br)cc3CCc3cc(Cl)cc(Br)c32)CC1 [Compound 6.0]
IC50 (COS Cell): 0.035 to 0.12 µM
IC50 [1, 2]: 0.0046 to 0.14 µM

Structure (SMILES): CC(=O)OC[C@H]1O[C@@H](N2CCC(CC(=O)N3CCC([C@H]4c5ncc(Br)cc5CCc5cc(Cl)cc(Br)c54)CC3)CC2)[C@H](OC(C)=O)[C@@H](OC(C)=O)[C@@H]1OC(C)=O [Compound 9.3, (+) -4-(3,10-dibromo-8-chloro-6,11-dihydro-5H-benzo[5,6]cyclohepta[1,2-b]pyridin-11-yl)-1-[[1-[2,3,4,6-tetra-O-acetyl-1-beta-D-glucopyranosyl]-4-piperidinyl]acetyl]piperidine]
IC50 (Human tumor cells): ≥ 0.08 µM
IC50 (COS Cell): 0.035 to 0.12 µM
IC50 [1, 2]: 0.0046 to 0.14 µM
IC50 [1, 3]: 0.029 to 0.091 µM

Now from value to molecule, other results behind:

IC50 [1, 2]: 0.0046 to 0.14 µM
IC50 [1, 3]: 0.029 to 0.091 µM
Structure (SMILES): O=C(CC1CCN(c2nc3ccccc3o2)CC1)N1CCC([C@H]2c3ncc(Br)cc3CCc3cc(Cl)cc(Br)c32)CC1 [Compound 4.0]
IC50 (COS Cell): 0.035 to 0.12 µM

IC50 (Human tumor cells): ≥ 0.08 µM
IC50 [1, 2]: 0.0046 to 0.14 µM
IC50 [1, 3]: 0.029 to 0.091 µM
Structure (SMILES): O=C(CC1CCN(c2ccccn2)CC1)N1CCC([C@H]2c3ncc(Br)cc3CCc3cc(Cl)cc(Br)c32)CC1 [Compound 5.0]
IC50 (COS Cell): 0.035 to 0.12 µM
